Results as given in ChEMBL document CHEMBL1909046, “DrugMatrix in vitro pharmacology data”.
Where a SMILES comes first, the peptide text is derived from it. Bridges are numbered along the chain shown (N, C = ends). [ ]: non-standard residue; d: D form. The star is where a group is joined. Threoninol(2S,3R) = C[C@@H](O)[C@H](CO)N*

Assays:
[1] = target: T1, Type-2 angiotensin II receptor (Homo sapiens, UniProt P50052); format: cell-based; details: cho-k1; also: in other assays of this panel Not Active means under 50% inhibition at 10 µM
T1 sequence (P50052 whole entry): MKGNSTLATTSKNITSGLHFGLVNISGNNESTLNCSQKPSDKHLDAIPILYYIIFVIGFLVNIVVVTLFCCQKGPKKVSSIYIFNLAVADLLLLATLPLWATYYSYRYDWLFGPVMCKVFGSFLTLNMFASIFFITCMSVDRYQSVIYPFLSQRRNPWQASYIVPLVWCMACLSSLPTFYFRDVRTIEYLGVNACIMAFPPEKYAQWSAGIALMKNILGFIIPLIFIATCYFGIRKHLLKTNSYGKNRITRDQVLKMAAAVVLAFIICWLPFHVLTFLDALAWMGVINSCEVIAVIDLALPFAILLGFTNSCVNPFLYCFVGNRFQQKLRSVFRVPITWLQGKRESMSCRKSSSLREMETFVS

[2] = DRUGMATRIX: ATPase, Na+/K+ enzyme inhibition (substrate: ATP); format: tissue-based, Sus scrofa, Heart; details: Not Active = under 50% inhibition at 10 µM
[3] = DRUGMATRIX: Calcium Channel Type L, Phenylalkylamine radioligand binding (ligand: [3H] (-)-Desmethoxyverapamil (D-888)); format: cell membranes, Rattus norvegicus, Wistar, Brain, Membrane; details: Not Active = under 50% inhibition at 10 µM
[4] = target: Prostaglandin G/H synthase 1 (Homo sapiens, UniProt P23219); assay: biochemical; format: tissue-based, Platelet; details: platelet;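 also: inhibition of COX-1 enzyme activity, with arachidonic acid supplied as substrate; in other assays of this panel Not Active means under 50% inhibition at 10 µM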
Sequence of Prostaglandin G/H synthase 1 (P23219 whole entry): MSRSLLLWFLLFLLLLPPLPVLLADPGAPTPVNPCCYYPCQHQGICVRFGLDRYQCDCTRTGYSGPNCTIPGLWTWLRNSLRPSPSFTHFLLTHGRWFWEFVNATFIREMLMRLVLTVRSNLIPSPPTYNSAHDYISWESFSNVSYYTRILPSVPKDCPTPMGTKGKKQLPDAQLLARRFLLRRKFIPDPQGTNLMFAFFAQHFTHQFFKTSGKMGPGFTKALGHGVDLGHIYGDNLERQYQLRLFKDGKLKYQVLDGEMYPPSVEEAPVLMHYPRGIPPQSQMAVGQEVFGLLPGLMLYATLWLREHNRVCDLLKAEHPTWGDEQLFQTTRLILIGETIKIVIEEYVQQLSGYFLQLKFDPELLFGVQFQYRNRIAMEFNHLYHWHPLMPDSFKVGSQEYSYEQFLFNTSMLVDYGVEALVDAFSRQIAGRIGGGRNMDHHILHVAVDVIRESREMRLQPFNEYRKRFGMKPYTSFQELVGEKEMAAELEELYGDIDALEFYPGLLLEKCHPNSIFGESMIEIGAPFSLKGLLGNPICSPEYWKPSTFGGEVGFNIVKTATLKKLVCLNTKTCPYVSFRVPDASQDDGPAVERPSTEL

[5] = target: Delta-type opioid receptor (Homo sapiens, UniProt P41143); format: cell membranes, HEK293, Membrane; details: hek293; also: in other assays of this panel Not Active means under 50% inhibition at 10 µM
Sequence of Delta-type opioid receptor (P41143 whole entry): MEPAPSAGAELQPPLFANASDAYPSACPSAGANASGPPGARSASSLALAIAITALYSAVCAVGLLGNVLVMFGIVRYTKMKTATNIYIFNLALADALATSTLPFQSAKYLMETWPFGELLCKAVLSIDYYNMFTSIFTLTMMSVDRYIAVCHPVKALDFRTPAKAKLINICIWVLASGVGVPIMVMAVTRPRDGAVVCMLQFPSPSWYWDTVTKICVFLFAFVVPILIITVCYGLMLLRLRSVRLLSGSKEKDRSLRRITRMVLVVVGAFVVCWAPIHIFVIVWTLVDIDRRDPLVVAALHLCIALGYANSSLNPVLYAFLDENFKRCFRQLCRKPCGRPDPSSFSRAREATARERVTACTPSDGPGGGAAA

[6] = target: Acetylcholinesterase (Homo sapiens, UniProt P22303); assay: DRUGMATRIX: Acetylcholinesterase enzyme inhibition (substrate: acetylthiocholine); format: cell-based, HEK293; details: hek293; Not Active = under 50% inhibition at 10 µM
Sequence of Acetylcholinesterase (P22303 whole entry): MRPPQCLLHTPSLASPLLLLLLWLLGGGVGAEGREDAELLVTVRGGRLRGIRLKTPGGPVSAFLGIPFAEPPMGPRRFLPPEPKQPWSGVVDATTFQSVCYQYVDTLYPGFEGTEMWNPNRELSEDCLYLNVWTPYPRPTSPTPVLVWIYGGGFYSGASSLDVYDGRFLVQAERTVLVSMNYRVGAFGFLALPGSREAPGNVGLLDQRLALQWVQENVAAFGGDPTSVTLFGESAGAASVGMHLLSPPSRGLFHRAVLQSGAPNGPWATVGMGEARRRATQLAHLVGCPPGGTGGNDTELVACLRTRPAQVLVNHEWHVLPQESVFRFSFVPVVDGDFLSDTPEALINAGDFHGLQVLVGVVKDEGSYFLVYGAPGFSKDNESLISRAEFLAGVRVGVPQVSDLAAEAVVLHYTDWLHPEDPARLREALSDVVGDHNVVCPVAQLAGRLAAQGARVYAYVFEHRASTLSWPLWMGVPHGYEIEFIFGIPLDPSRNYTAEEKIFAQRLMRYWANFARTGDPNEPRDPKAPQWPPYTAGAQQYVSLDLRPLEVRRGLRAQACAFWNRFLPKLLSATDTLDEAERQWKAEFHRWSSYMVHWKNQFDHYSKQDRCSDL

COc1ccccc1C(=O)N1CCC(Cc2ccccc2)CC1
Not Active: IC50 [1] | IC50 [2] | Ki [2] | IC50 [3] | Ki [3] | IC50 [4] | IC50 [5] | IC50 [6]

Cc1ccccc1C(=O)N1CCC(Cc2ccccc2)CC1
Not Active: IC50 [1] | IC50 [2] | Ki [2] | IC50 [3] | Ki [3] | IC50 [4] | IC50 [5] | IC50 [6]

O=C1CC[C@H](N2C(=O)c3ccccc3C2=O)C(=O)N1
Not Active: IC50 [1] | IC50 [2] | Ki [2] | IC50 [3] | Ki [3] | IC50 [4] | IC50 [5] | IC50 [6]

N=C(Nc1ccccc1)Nc1ccccc1
Not Active: IC50 [1] | IC50 [2] | Ki [2] | IC50 [3] | Ki [3] | IC50 [4] | IC50 [5] | IC50 [6]

C[C@@H](O)[C@H](CO)NC(=O)[C@@H]1CSSC[C@H](NC(=O)[C@H](N)Cc2ccccc2)C(=O)N[C@@H](Cc2ccccc2)C(=O)N[C@H](Cc2c[nH]c3ccccc23)C(=O)N[C@@H](CCCCN)C(=O)N[C@@H]([C@@H](C)O)C(=O)N1 (H-[dF]CF[dW]KTC-{Threoninol(2S,3R)}; disulfide 2-7)
Not Active: IC50 [1] | IC50 [2] | Ki [2] | IC50 [3] | Ki [3] | IC50 [4] | IC50 [5] | IC50 [6]

S=C=Nc1cccc2ccccc12 [1-NAPHTHYLISOTHIOCYANATE]
Not Active: IC50 [1] | IC50 [2] | Ki [2] | IC50 [3] | Ki [3] | IC50 [4] | IC50 [5] | IC50 [6]

C[C@](O)(CS(=O)(=O)c1ccc(F)cc1)C(=O)Nc1ccc(C#N)c(C(F)(F)F)c1 [(R)-BICALUTAMIDE]
Not Active: IC50 [1] | IC50 [2] | Ki [2] | IC50 [3] | Ki [3] | IC50 [4] | IC50 [5] | IC50 [6]

CCCC(=O)Nc1ccc(OCC(O)CNC(C)C)c(C(C)=O)c1 (configuration not stated) [ACEBUTOLOL]
Not Active: IC50 [1] | IC50 [2] | Ki [2] | IC50 [3] | Ki [3] | IC50 [4] | IC50 [5] | IC50 [6]

CC(=O)Nc1ccc(O)cc1 [ACETAMINOPHEN]
Not Active: IC50 [1] | IC50 [2] | Ki [2] | IC50 [3] | Ki [3] | IC50 [4] | IC50 [5] | IC50 [6]

COc1cc2c(c3oc(=O)c4c(c13)CCC4=O)[C@@H]1C=CO[C@@H]1O2 [AFLATOXIN]
Not Active: IC50 [1] | Ki [1] | IC50 [2] | Ki [2] | IC50 [3] | Ki [3] | IC50 [4] | Ki [4] | IC50 [5] | Ki [5] | IC50 [6] | Ki [6]

N=C(N)NC(=O)c1nc(Cl)c(N)nc1N [AMILORIDE]
Not Active: IC50 [1] | IC50 [2] | Ki [2] | IC50 [3] | Ki [3] | IC50 [4] | IC50 [5] | IC50 [6]

Cc1cc(=O)n(-c2ccccc2)n1C [ANTIPYRINE]
Not Active: IC50 [1] | IC50 [2] | Ki [2] | IC50 [3] | Ki [3] | IC50 [4] | IC50 [5] | IC50 [6]

CN1C(=O)COc2c(C(=O)NC3CN4CCC3CC4)cc(Cl)cc21 (configuration not stated) [AZASETRON]
Not Active: IC50 [1] | IC50 [2] | Ki [2] | IC50 [3] | Ki [3] | IC50 [4] | IC50 [5] | IC50 [6]

C[C@H]1C[C@H]2[C@@H]3CCC4=CC(=O)C=C[C@]4(C)[C@@]3(Cl)[C@@H](O)C[C@]2(C)[C@@]1(O)C(=O)CO [BECLOMETHASONE]
Not Active: IC50 [1] | IC50 [2] | Ki [2] | IC50 [3] | Ki [3] | IC50 [4] | IC50 [5] | IC50 [6]

CCOC(=O)[C@H](CCc1ccccc1)N[C@H]1CCc2ccccc2N(CC(=O)O)C1=O [BENAZEPRIL]
Not Active: IC50 [1] | IC50 [2] | Ki [2] | IC50 [3] | Ki [3] | IC50 [4] | IC50 [5] | IC50 [6]

Nc1c(CC(=O)O)cccc1C(=O)c1ccc(Br)cc1 [BROMFENAC]
Not Active: IC50 [1] | IC50 [2] | Ki [2] | IC50 [3] | Ki [3] | IC50 [5] | IC50 [6]

CCCCN1CCCCC1C(=O)Nc1c(C)cccc1C.Cl (configuration not stated) [BUPIVACAINE HYDROCHLORIDE]
Not Active: IC50 [1] | IC50 [2] | Ki [2] | IC50 [3] | Ki [3] | IC50 [4] | IC50 [5] | IC50 [6]

O=C1CC2(CCCC2)CC(=O)N1CCCCN1CCN(c2ncccn2)CC1 [BUSPIRONE]
Not Active: IC50 [1] | IC50 [2] | Ki [2] | IC50 [3] | Ki [3] | IC50 [4] | IC50 [5] | IC50 [6]

C[C@@]12C(=O)OC(=O)[C@]1(C)[C@H]1CC[C@@H]2O1 [CANTHARIDIN]
Not Active: IC50 [1] | IC50 [2] | Ki [2] | IC50 [3] | Ki [3] | IC50 [4] | IC50 [5] | IC50 [6]

O=NN(CCCl)C(=O)NCCCl [CARMUSTINE]
Not Active: IC50 [1] | IC50 [2] | Ki [2] | IC50 [3] | Ki [3] | IC50 [4] | IC50 [5] | IC50 [6]

CC1=C(C(=O)O)N2C(=O)[C@@H](NC(=O)[C@H](N)c3ccccc3)[C@H]2SC1 [CEPHALEXIN ANHYDROUS]
Not Active: IC50 [1] | IC50 [2] | Ki [2] | IC50 [3] | Ki [3] | IC50 [4] | IC50 [5] | IC50 [6]

O=C(N[C@H](CO)[C@H](O)c1ccc([N+](=O)[O-])cc1)C(Cl)Cl [CHLORAMPHENICOL]
Not Active: IC50 [1] | IC50 [2] | Ki [2] | IC50 [3] | Ki [3] | IC50 [4] | IC50 [5] | IC50 [6]

ClC(Cl)Cl [CHLOROFORM]
Not Active: IC50 [1] | IC50 [2] | Ki [2] | IC50 [3] | Ki [3] | IC50 [4] | IC50 [5] | IC50 [6]

C=C1CC[C@H](O)C/C1=C/C=C1\CCC[C@]2(C)[C@@H]([C@H](C)CCCC(C)C)CC[C@@H]12 [CHOLECALCIFEROL]
Not Active: IC50 [1] | IC50 [2] | Ki [2] | IC50 [3] | Ki [3] | IC50 [4] | IC50 [5] | IC50 [6]

C[N+](C)(C)CCO.[Cl-] [CHOLINE CHLORIDE]
Not Active: IC50 [1] | IC50 [2] | Ki [2] | IC50 [3] | Ki [3] | IC50 [4] | IC50 [5] | IC50 [6]

CCOC(=O)C(C)(C)Oc1ccc(Cl)cc1 [CLOFIBRATE]
Not Active: IC50 [1] | IC50 [2] | Ki [2] | IC50 [3] | Ki [3] | IC50 [4] | IC50 [5] | IC50 [6]

O=C(O)Cc1ccccc1Nc1c(Cl)cccc1Cl [DICLOFENAC]
Not Active: IC50 [1] | IC50 [2] | Ki [2] | IC50 [3] | Ki [3] | IC50 [5] | IC50 [6]

CC(C)Cc1ccc(C(C)C(=O)O)cc1 (configuration not stated) [IBUPROFEN]
Not Active: IC50 [1] | IC50 [2] | Ki [2] | IC50 [3] | Ki [3] | IC50 [5] | IC50 [6]

COc1ccc2c(c1)c(CC(=O)O)c(C)n2C(=O)c1ccc(Cl)cc1 [INDOMETHACIN]
Not Active: IC50 [1] | IC50 [2] | Ki [2] | IC50 [3] | Ki [3] | IC50 [5] | IC50 [6]

CCc1c2c(nc3ccc(OC(=O)N4CCC(N5CCCCC5)CC4)cc13)-c1cc3c(c(=O)n1C2)COC(=O)[C@]3(O)CC [IRINOTECAN]
Not Active: IC50 [1] | IC50 [2] | Ki [2] | IC50 [3] | Ki [3] | IC50 [4] | IC50 [5]

CC(C(=O)O)c1cccc(C(=O)c2ccccc2)c1 (configuration not stated) [KETOPROFEN]
Not Active: IC50 [1] | IC50 [2] | Ki [2] | IC50 [3] | Ki [3] | IC50 [5] | IC50 [6]

COc1ccc2cc([C@H](C)C(=O)O)ccc2c1 [NAPROXEN]
Not Active: IC50 [1] | IC50 [2] | Ki [2] | IC50 [3] | Ki [3] | IC50 [5]
